Experimental data reported in patent publication US9770170B2, “Methods for diagnosing, treating, and monitoring chronic inflammatory response syndrome” (priority 2012, dated 2017).

Legend:
[1] = system: patients with clinically-confirmed CIRS-WDB; test: Open-label VIP replacement trial: physician recorded symptoms; type: in vivo, human; conditions: for SX (symptoms) mean value: Control 2.9, Base 29.8, AC2 17.8
Excerpt: (§1) 3A. Treatment: Human research approval for this study was provided by Copernicus Group IRB, Cary, N.C. […] Further, certain patients were excluded from the trial for the following reason. […] Patients with these findings were excluded from the formal replacement trial.
(§2) All patients enrolled in the trial were confirmed to be exposed to WDB by observation of illness acquisition solely following water intrusion followed by either (1) visible microbial growth; (2) specification of molds by QPCR DNA testing; or (3) musty smells. All patients met the case criteria established by the GAO (US GAO 2008). Patients were known to the clinic with a 36-month mean duration of prior treatment following exposure to WDB.
(§3) For the experimental protocol, subjects self-administered 50 mcg VIP (Aviptadil; Bachem AG, Switzerland) four times a day via nasal aerosol and returned to the clinic to review symptoms and clinical course, and undergo interval physical exam and laboratory exam at scheduled intervals. Clinical data were collected before any treatments, or baseline (BASE); after all other treatments and before VIP (AC2); after 12 months of VIP (12M); and after 18 months of VIP (18M). Data collection included physician recorded symptoms in a medical history (Table 2); levels of VIP, MSH, C4a, TGF beta-1, VEGF, MMP9, estradiol, testosterone, 25-0H vitamin D, lipase, CBC and CMP. Measurement of CD4+CD25+T regulatory (Treg) cells was not available at BASE; Treg testing was performed at AC2 and 18 month time periods. Laboratory testing for all analytes was performed by high complexity CLIA-certified labs including LabCorp and Quest Diagnostics. All data were compared to either established normative values or values from prior testing of healthy control populations (N=850) performed at this clinic. Data were analyzed by two-sample T-tests for each of two study time points and one-sample T-tests that compared the specified data to the corresponding historical control values. A Bonferroni correction to the p-values was done to control the experiment-wise error rate. A p value of <0.001 was chosen as the determinant of significance for the study.

[2] = system: patients with clinically-confirmed CIRS-WDB; test: Open-label VIP replacement trial: laboratory parameters (CLIA labs); conditions: for Estra-M (estradiol in males) mean value: Control 23.1, Base 36, AC2 30.3; for VIP level mean value: Control 28.9, Base 9.3, AC2 14.4; for Estra-F (estradiol in females) mean value: Control 29.8, Base 28, AC2 26.6; for Lipase mean value: Control 30.1, Base 24.2, AC2 30.8; for MSH mean value: Control 37.2, Base 9.4, AC2 16.8; for VIT D (25-OH vitamin D) mean value: Control 38.4, Base 19.4, AC2 24.1; for VEGF mean value: Control 65, Base 61, AC2 95.3; for Test-F (testosterone in females) mean value: Control 282, Base 20, AC2 18.9; for MMP-9 mean value: Control 332, Base 628, AC2 358; for Test-M (testosterone in males) mean value: Control 415, Base 298.8, AC2 293.5; for TGF (TGF beta-1) mean value: Control 2380, Base 12579, AC2 13015; for C4a mean value: Control 2830, Base 8346, AC2 4662
Excerpt: as §1, §2, §3

[3] = system: patients with clinically-confirmed CIRS-WDB; test: Stress echocardiography, pulmonary artery systolic pressure (PASP) in exercise; type: in vivo, human; conditions: all subjects, within two months; entry criterion rise exceeding 8 mm Hg versus resting PASP
Excerpt: Entry criteria also included a rise in pulmonary artery systolic pressure (PASP) in exercise as measured by stress echocardiography that exceeded 8 mm Hg as compared to resting PASP. Standard Bruce protocols were employed during stress echocardiography testing. […] All patients achieved target heart rate; none developed ischemic changes on EKG or chest pain during stress testing.

CD4+CD25+ Treg cells = test: Flow cytometry of CD4+CD25+ T regulatory (Treg) cells; type: in vivo, human; conditions: 18 month versus AC2, increase from a mean of 8.9
Excerpt: CD4^+ CD25^+ Treg cells in CIRS patients can be measured by flow cytometry. CD4^+ CD25^+ Treg cells mature in response to an inflammatory stimulation, and in particular, in response to increasing levels of TGF-β1. Matured CD4^+ CD25^+ Treg cells migrate to tissues to suppress inflammation and autoimmunity. However, if there is a pre-existing inflammatory response ongoing in tissues, CD4^+ CD25^+ Treg cells may turn into autoreactive T cells. Therefore, the determination of CD4^+ CD25^+ Treg cells in blood as well as in tissues may be helpful in assessing the status of inflammation in CIRS patients.

[4] = system: patients with clinically-confirmed CIRS-WDB; test: Open-label VIP replacement trial: safety and tolerability
Excerpt: as §3

human volunteers = test: Initial use of low dose VIP by nasal instillation (earlier trials)
Excerpt: as §1

[5] = initial use of low dose VIP by nasal instillation

CC[C@H](C)[C@H](NC(=O)[C@H](CO)NC(=O)[C@H](CC(N)=O)NC(=O)[C@H](CC(C)C)NC(=O)[C@H](Cc1ccc(O)cc1)NC(=O)[C@H](CCCCN)NC(=O)[C@H](CCCCN)NC(=O)[C@@H](NC(=O)[C@H](C)NC(=O)[C@H](CCSC)NC(=O)[C@H](CCC(N)=O)NC(=O)[C@H](CCCCN)NC(=O)[C@H](CCCNC(=N)N)NC(=O)[C@H](CC(C)C)NC(=O)[C@H](CCCNC(=N)N)NC(=O)[C@@H](NC(=O)[C@H](Cc1ccc(O)cc1)NC(=O)[C@H](CC(N)=O)NC(=O)[C@H](CC(=O)O)NC(=O)[C@@H](NC(=O)[C@H](Cc1ccccc1)NC(=O)[C@@H](NC(=O)[C@H](C)NC(=O)[C@H](CC(=O)O)NC(=O)[C@H](CO)NC(=O)[C@@H](N)Cc1c[nH]cn1)C(C)C)[C@@H](C)O)[C@@H](C)O)C(C)C)C(=O)N[C@@H](CC(C)C)C(=O)N[C@@H](CC(N)=O)C(N)=O [VIP, Aviptadil]
Quality of life ([1]; 20 patients, open-label trial): enhanced quality of life
SX (symptoms) mean value ([1]; after 12 months of VIP, 50 mcg four times a day nasal aerosol): 5.5
SX (symptoms) mean value ([1]; after 18 months of VIP): 3.4
Symptom reduction versus controls ([1]; all treated patients): Symptom reduction to equal those of controls
Inflammatory parameters versus controls ([2]; VIP nasal spray, open-label trial): not significantly different from controls
Estra-M (estradiol in males) mean value ([2]; after 12 months of VIP): 27.7
VIP level mean value ([2]; after 12 months of VIP): 12.3
Estra-F (estradiol in females) mean value ([2]; after 12 months of VIP): 27.8
Lipase mean value ([2]; after 12 months of VIP): 30.7
MSH mean value ([2]; after 12 months of VIP): 17.3
VIT D (25-OH vitamin D) mean value ([2]; after 12 months of VIP): 38.3
VEGF mean value ([2]; after 12 months of VIP): 73.4
Test-F (testosterone in females) mean value ([2]; after 12 months of VIP): 22.6
MMP-9 mean value ([2]; after 12 months of VIP): 302
Test-M (testosterone in males) mean value ([2]; after 12 months of VIP): 546.7
TGF (TGF beta-1) mean value ([2]; after 12 months of VIP): 5359
C4a mean value ([2]; after 12 months of VIP): 5679
Estra-M (estradiol in males) mean value ([2]; after 18 months of VIP): 22.8
VIP level mean value ([2]; after 18 months of VIP): 16.6
Estra-F (estradiol in females) mean value ([2]; after 18 months of VIP): 28.9
Lipase mean value ([2]; after 18 months of VIP): 27.9
MSH mean value ([2]; after 18 months of VIP): 18.2
VIT D (25-OH vitamin D) mean value ([2]; after 18 months of VIP): 39.3
VEGF mean value ([2]; after 18 months of VIP): 66.2
Test-F (testosterone in females) mean value ([2]; after 18 months of VIP): 25.2
MMP-9 mean value ([2]; after 18 months of VIP): 290
Test-M (testosterone in males) mean value ([2]; after 18 months of VIP): 511.5
TGF (TGF beta-1) mean value ([2]; after 18 months of VIP): 4040
C4a mean value ([2]; after 18 months of VIP): 3306
Patient values versus controls by the end of the trial (symptoms, MSH, VIP, MMP9, C4a, TGF-β1, 25-OH Vitamin D, testosterone in males) ([2]; end of the trial, baseline differed from controls at p<0.01): not statistically different from controls, except for VIP and MSH
Elevated PASP in stress exercise testing reduced to [3]: < 8 mm Hg
CD4+CD25+ Treg cells, mean (CD4+CD25+ Treg cells): 22.5
Tolerability ([4]; 18 month study, 20 patients, nasal aerosol): tolerated the drug well
Changes in CBC and CMP ([4]; during the trial): No changes
Dropouts due to adverse effects ([4]; over the course of the 18 month study): no dropouts due to adverse effects
Elevated lipase, cases ([4]; resolved without cessation of use of VIP): One patient had a transient elevated level of lipase without abdominal pain
Lipase levels during the trial ([4]; whole cohort): did not rise
Safety of low dose VIP by nasal instillation (human volunteers; human volunteers, initial use): shown to be safe
Effect on pulmonary artery responses to exercise (human volunteers; [5]): blunted accentuated pulmonary artery responses to exercise
Effect on symptoms (human volunteers; [5]): prompt reduction in symptoms
